What was measured:
MIAPaCa-2 (pancreas) = assay: In vitro cytotoxic activity assay (MTT), MIAPaCa-2; format: cell-based; details: Homo sapiens, MIA PaCa-2; MIAPaCa-2 (pancreas) cells, exposed for 96 hours; read-out: IC50, concentration eliciting 50% inhibition of cell proliferation
Protocol: (§1) Compounds 1-15 were screened for their in vitro cytotoxic activity utilizing a 3-(4,5-dimethyl-thiazol-2-yl)-2,5-diphenyltetrazolium bromide (MTT) assay against selected cancer human cell lines consisting of PC3 (prostate), HCT116 (colon), A375 (melanoma), H1299 (lung), MIAPaCa-2 (pancreas), HL60 (leukemia), MCF7 (breast), MDA-MB-231 (breast) (T. Mosmann, J. Immunol. Meth., 1983, 65, 55-63). The cells were cultured at 37° C. in RMPI1640 medium supplemented with 10% fetal bovine serum, 50 IU/mL penicillin, and 50 μg/mL streptomycin in a 5% CO2 incubator. All cells were sub-cultured 3 times/week by trypsinisation. Viable cells were seeded and allowed to adhere for 12 h before a test drug was added in 96-well plates at an initial density of 1.0×10^5 cells/mL. Tumour cell lines were separately exposed to various concentrations of the tested compounds followed by incubation at a temperature of 37° C. during 96 h inside a medium of fresh RMPI 1640. Cells were subsequently incubated at 37° C. using MTT at 0.5 mg/mL during 4 h. After removal of supernatant, formazan crystals were dissolved in isopropanol and the optical density was measured at 570 nm. CX-4945 was used as a positive control.

HL60 (leukemia) = assay: In vitro cytotoxic activity assay (MTT), HL60; format: cell-based; details: Homo sapiens, HL-60; HL60 (leukemia) cells, exposed for 96 hours; read-out: IC50, concentration eliciting 50% inhibition of cell proliferation
Protocol: as §1

MDA-MB-231 (breast) = assay: In vitro cytotoxic activity assay (MTT), MDA-MB-231; format: cell-based; details: Homo sapiens; MDA-MB-231 (breast) cells, exposed for 96 hours; read-out: IC50, concentration eliciting 50% inhibition of cell proliferation
Protocol: as §1

HCT116 (colon) = assay: In vitro cytotoxic activity assay (MTT), HCT116; format: cell-based; details: Homo sapiens, HCT-116; HCT116 (colon) cells, exposed for 96 hours; read-out: IC50, concentration eliciting 50% inhibition of cell proliferation
Protocol: as §1

MCF7 (breast) = assay: In vitro cytotoxic activity assay (MTT), MCF7; format: cell-based; details: Homo sapiens; MCF7 (breast) cells, exposed for 96 hours; read-out: IC50, concentration eliciting 50% inhibition of cell proliferation
Protocol: as §1

recombinant human CK2 = molecular target: T1, recombinant human CK2 (Homo sapiens, UniProt P68400); assay: CK2 Kinase Assay (33P-ATP, substrate peptide RRRDDDSDDD); format: biochemical; details: final ATP concentration 15 μM, 10 min at 30° C.; read-out: protein kinase CK2 IC50
T1 construct: purchased Millipore
T1 sequence (P68400 whole entry): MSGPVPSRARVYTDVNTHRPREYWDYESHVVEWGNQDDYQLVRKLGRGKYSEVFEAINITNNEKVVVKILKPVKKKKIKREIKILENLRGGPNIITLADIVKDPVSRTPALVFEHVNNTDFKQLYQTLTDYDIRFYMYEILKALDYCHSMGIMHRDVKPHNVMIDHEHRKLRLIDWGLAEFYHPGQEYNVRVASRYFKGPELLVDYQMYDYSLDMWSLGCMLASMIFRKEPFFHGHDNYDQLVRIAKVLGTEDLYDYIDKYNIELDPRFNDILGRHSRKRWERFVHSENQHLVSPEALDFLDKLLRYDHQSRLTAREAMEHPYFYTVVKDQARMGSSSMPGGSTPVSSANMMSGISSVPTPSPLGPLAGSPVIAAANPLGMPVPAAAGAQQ
T1 sequence (P67870 whole entry partner): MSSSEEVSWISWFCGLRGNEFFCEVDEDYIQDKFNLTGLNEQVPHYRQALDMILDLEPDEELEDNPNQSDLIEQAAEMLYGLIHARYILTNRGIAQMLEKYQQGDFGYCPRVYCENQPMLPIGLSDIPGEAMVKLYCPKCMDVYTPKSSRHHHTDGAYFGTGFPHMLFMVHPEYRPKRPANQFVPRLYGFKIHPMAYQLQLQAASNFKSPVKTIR
Protocol: CK2 Kinase Assay was conducted using the protocol as described in Pierre F. et al; J. Med. Chem. 2011, 54, 635-654. The tested compounds in aqueous solution were added at a volume of 10 μL to a reaction mixture comprising 10 μL of assay dilution buffer (ADB; 20 mM MOPS, pH 7.2, 25 mM β-glycerol phosphate, 5 mM EGTA, 1 mM sodium orthovanadate, and 1 mM dithiothreitol), 10 μL of substrate peptide (RRRDDDSDDD, dissolved in ADB at a concentration of 1 mM), 10 μL of recombinant human CK2 (RROP-holoenzyme, 25 ng dissolved in ADB; Millipore). Reactions were initiated by the addition of 10 μL of ATP solution (90% 75 mMMgCl2, 75 μM ATP (final ATP concentration: 15 μM) dissolved in ADB; 10% [γ-33P] ATP (stock 1 mCi/100 L; 3000 Ci/mmol (Perkin-Elmer) and maintained for 10 min at 30° C. The reactions were quenched with 100 μL of 0.75% phosphoric acid and then transferred to and filtered through a phosphor cellulose filter plate (Millipore). After washing each well five times with 0.75% phosphoric acid, the plate was dried under vacuum for 5 min and, following the addition of 15 μL of scintillation fluid to each well, the residual radioactivity was measured using a Wallac luminescence counter. The IC50 values were derived from eight concentrations of test inhibitors.

H1299 (lung) = assay: In vitro cytotoxic activity assay (MTT), H1299; format: cell-based; details: Homo sapiens, NCI-H1299; H1299 (lung) cells, exposed for 96 hours; read-out: IC50, concentration eliciting 50% inhibition of cell proliferation
Protocol: as §1

PC3 (prostate) = assay: In vitro cytotoxic activity assay (MTT), PC3; format: cell-based; details: Homo sapiens, Prostate cell; PC3 (prostate) cells, exposed for 96 hours; read-out: IC50, concentration eliciting 50% inhibition of cell proliferation
Protocol: as §1

A375 (melanoma) = assay: In vitro cytotoxic activity assay (MTT), A375; format: cell-based; details: Homo sapiens, A-375; A375 (melanoma) cells, exposed for 96 hours; read-out: IC50, concentration eliciting 50% inhibition of cell proliferation
Protocol: as §1

IC50 (recombinant human CK2): 47 nM
SMILES: Clc1cccc(-n2c3ccncc3c3nc4cnccn4c32)c1 [Compound 1, 5-(3-chlorophenyl)-5H-pyrido[3″,4″:4′,5′]pyrrolo[3′,2′:4,5]imidazo[1,2-a]pyrazine]
IC50 (MIAPaCa-2 (pancreas)): 1200 nM
IC50 (HL60 (leukemia)): 3000 nM
IC50 (MDA-MB-231 (breast)): 3.9 µM
IC50 (HCT116 (colon)): 1900 nM
IC50 (MCF7 (breast)): 5.6 µM
IC50 (H1299 (lung)): 2100 nM
IC50 (PC3 (prostate)): 1500 nM
IC50 (A375 (melanoma)): 4.4 µM

Reference: patent publication US11891396B1, “5-substituted pyrido[3″,4″:4′,5′]pyrrolo[3′,2′:4,5]imidazo[1,2-a]pyrazine compounds as CK2 inhibitors” (KING FAISAL UNIVERSITY, priority 2023, dated 2024)
